Values belong to the molecule of their own block, whether it stands above or below them.
Columns and labels:
[1] = target: T1, mTORC1 (Homo sapiens, UniProt P42345+Q8N122+Q9BVC4); experiment: Inhibition of mTORC1 (unknown origin) assessed as measuring phosphorylated p7OS6K level at 0.2 uM relative to control; assay type: protein-complex assay
[2] = target: T1, mTORC1; experiment: Inhibition of mTORC1 (unknown origin) assessed as measuring phosphorylated 4EBP1 level at 1 uM relative to control; assay type: protein-complex assay
[3] = target: Peptidyl-prolyl cis-trans isomerase FKBP1A (Homo sapiens, UniProt P62942); experiment: Binding affinity to FKBP12 (unknown origin) assessed as inhibition constant
Peptidyl-prolyl cis-trans isomerase FKBP1A, sequence (P62942 whole entry): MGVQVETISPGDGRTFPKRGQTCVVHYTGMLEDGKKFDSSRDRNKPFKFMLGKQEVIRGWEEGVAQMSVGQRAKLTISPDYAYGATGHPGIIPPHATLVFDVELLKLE

[4] = target: T1, mTORC1; experiment: Inhibition of mTORC1 in human MDA-MB-468 cells assessed as measuring phosphorylated P70S6K incubated for 2 to 4 hrs by AlphaLISA assay; assay type: cell-based
[5] = target: T1, mTORC1; experiment: Inhibition of mTORC1 in human MDA-MB-468 cells assessed as measuring phosphorylated 4EBP1 incubated for 2 to 4 hrs by AlphaLISA assay; assay type: cell-based
[6] = target: mTORC2 (Homo sapiens, UniProt P42345+Q6R327+Q9BPZ7+Q9BVC4); experiment: Inhibition of mTORC2 in human MDA-MB-468 cells assessed as measuring phosphorylated AKT incubated for 2 to 4 hrs by AlphaLISA assay; assay type: cell-based
mTORC2, sequence (Q6R327 whole entry, other chains not shown): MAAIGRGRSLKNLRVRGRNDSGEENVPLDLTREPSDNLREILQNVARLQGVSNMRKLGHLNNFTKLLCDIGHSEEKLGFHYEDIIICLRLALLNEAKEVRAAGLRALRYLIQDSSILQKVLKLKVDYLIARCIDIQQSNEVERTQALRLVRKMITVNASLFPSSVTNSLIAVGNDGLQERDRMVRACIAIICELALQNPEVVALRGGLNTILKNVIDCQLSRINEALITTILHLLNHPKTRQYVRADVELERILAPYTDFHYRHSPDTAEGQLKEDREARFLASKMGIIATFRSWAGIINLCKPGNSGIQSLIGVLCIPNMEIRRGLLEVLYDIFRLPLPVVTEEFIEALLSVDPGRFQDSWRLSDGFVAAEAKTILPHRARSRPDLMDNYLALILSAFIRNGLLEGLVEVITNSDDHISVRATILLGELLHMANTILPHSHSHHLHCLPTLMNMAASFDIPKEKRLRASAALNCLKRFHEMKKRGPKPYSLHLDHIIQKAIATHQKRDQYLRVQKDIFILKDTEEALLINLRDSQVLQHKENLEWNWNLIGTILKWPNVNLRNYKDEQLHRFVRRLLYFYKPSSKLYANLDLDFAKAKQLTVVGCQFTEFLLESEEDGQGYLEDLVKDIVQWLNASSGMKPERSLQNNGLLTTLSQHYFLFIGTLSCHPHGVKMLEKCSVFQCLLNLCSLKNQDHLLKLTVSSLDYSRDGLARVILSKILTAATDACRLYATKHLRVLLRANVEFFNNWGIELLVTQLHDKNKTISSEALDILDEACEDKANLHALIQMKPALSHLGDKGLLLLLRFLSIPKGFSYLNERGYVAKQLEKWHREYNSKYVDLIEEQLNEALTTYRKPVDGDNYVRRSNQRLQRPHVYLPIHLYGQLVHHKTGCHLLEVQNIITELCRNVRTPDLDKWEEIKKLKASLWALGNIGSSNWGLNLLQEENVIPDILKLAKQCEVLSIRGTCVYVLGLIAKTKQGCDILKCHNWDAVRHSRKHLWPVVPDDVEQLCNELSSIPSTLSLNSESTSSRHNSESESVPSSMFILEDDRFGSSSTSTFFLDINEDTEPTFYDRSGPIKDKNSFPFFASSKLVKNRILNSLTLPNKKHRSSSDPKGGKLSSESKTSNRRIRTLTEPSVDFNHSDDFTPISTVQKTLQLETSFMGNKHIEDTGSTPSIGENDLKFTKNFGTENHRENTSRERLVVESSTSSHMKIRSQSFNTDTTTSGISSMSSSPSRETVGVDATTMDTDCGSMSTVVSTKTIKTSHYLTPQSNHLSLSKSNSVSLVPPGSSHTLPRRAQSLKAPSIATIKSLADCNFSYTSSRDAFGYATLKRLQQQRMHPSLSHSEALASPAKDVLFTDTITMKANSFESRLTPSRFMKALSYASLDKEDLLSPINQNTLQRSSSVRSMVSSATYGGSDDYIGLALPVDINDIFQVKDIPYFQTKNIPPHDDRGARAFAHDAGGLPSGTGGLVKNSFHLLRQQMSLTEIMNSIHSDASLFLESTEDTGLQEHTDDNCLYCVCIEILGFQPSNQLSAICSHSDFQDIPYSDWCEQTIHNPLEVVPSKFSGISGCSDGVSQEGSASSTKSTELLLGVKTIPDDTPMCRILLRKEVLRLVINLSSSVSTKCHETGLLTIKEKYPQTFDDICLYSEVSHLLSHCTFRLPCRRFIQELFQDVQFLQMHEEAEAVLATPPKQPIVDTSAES
mTORC2, sequence (Q9BPZ7 2-522 limits assumed, other chains not shown): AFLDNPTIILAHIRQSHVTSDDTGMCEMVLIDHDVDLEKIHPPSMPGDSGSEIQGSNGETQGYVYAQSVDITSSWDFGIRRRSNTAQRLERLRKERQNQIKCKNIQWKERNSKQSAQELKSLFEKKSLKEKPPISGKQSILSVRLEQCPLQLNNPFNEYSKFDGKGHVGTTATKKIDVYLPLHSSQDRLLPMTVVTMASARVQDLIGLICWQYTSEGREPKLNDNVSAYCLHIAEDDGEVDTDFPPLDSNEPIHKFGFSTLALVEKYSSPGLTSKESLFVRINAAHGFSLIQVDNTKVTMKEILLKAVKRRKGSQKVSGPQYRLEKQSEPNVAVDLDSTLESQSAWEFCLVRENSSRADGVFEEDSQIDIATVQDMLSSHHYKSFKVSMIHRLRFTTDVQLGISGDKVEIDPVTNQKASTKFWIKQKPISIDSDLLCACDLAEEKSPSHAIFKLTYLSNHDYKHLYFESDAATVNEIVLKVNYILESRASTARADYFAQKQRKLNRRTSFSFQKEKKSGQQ
mTORC2, sequence (Q9BVC4 whole entry, other chains not shown): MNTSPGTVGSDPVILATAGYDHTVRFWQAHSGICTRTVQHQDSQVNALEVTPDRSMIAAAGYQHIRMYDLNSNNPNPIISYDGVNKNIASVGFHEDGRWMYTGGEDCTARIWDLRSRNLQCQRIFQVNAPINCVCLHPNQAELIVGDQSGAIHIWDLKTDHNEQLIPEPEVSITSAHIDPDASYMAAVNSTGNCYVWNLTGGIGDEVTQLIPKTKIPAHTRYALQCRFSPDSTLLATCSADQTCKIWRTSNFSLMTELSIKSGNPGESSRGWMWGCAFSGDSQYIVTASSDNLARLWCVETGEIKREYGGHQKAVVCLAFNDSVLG

[7] = target: T1, mTORC1; experiment: Inhibition of mTORC1 (unknown origin); assay type: protein-complex assay
[8] = target: T2, Phosphatidylinositol 4,5-bisphosphate 3-kinase catalytic subunit delta isoform (Homo sapiens, UniProt O00329); experiment: Inhibition of human PI3Kdelta preincubated for 15 mins followed by ATP addition measured after 1 hr by TR-FRET assay
T2 sequence (O00329 whole entry): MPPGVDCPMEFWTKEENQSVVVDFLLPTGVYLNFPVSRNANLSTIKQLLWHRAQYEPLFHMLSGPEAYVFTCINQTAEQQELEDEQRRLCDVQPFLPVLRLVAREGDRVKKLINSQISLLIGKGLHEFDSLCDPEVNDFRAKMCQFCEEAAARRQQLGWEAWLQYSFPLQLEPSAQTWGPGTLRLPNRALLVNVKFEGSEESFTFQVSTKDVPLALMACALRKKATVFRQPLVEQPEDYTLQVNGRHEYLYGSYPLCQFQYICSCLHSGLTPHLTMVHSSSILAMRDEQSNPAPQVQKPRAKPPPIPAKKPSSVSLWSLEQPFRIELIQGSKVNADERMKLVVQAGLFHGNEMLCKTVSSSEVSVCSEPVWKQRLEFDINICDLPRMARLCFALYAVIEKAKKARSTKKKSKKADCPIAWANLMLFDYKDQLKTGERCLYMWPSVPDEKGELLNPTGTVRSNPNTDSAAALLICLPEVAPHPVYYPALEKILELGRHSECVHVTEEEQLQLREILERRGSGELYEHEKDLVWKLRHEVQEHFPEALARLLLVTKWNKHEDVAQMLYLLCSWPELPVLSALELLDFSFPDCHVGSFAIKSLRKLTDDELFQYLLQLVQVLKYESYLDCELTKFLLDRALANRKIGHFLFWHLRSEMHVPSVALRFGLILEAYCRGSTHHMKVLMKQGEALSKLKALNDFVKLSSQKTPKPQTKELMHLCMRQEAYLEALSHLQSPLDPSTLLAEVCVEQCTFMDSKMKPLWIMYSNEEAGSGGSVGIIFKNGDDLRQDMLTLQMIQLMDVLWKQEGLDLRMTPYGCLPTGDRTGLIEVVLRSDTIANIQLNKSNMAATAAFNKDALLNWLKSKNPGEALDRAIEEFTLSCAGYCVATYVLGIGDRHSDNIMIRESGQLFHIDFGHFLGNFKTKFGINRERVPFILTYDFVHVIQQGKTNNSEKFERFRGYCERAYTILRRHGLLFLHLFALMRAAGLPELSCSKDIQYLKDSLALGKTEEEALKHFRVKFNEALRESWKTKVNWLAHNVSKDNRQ

[9] = target: PI3-kinase p110-alpha/p85-alpha (Homo sapiens, UniProt P42336); experiment: Inhibition of PI3K p110alpha/p85alpha (unknown origin) using PIP2 as substrate preincubated for 15 mins followed by substrate addition measured after 1 hr in presence of ATP by TR-FRET assay; assay type: protein-complex assay

T1 sequence (Q8N122 whole entry, looked up, other chains not shown): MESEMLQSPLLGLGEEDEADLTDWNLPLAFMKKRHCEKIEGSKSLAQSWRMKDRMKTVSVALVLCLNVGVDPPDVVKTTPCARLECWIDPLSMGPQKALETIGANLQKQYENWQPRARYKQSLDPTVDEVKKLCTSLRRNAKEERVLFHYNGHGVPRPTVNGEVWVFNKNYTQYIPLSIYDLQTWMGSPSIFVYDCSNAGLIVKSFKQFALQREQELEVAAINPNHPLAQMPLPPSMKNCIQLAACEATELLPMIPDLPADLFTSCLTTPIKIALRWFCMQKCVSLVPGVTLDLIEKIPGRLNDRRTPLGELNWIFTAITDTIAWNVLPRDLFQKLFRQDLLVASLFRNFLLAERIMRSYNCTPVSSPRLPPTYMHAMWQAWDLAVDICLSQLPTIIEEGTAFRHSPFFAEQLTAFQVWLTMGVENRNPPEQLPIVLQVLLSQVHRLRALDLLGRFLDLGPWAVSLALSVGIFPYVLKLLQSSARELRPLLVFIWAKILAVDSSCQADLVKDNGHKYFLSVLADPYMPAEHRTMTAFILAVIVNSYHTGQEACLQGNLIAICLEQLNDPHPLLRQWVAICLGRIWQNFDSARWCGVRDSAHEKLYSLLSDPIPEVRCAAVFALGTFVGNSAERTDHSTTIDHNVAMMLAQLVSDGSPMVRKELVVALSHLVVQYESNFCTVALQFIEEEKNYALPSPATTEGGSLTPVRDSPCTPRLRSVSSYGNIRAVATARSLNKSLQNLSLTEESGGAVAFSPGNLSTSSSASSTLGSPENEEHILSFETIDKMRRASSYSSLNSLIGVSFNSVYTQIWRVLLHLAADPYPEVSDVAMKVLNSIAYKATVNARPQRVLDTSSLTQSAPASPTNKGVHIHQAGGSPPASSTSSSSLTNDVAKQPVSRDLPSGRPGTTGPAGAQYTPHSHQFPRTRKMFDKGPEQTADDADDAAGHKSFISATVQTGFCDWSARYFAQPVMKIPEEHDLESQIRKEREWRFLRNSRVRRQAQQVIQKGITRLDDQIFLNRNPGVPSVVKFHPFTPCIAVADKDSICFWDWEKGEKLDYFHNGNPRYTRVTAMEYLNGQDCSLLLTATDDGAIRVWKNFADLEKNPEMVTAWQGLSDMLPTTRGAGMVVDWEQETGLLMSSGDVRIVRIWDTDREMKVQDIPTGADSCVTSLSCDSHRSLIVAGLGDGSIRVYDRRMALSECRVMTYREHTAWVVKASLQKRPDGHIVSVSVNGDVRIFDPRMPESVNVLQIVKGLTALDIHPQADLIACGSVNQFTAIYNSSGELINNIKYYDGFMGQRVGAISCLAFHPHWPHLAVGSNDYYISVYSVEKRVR
T1 sequence (Q9BVC4 whole entry, looked up, other chains not shown): as the sequence (Q9BVC4 whole entry, other chains not shown) above

Structure (SMILES): CNC(=O)c1cccc(-c2ccc3c(N4CCOC[C@@H]4C)nc(N4CCOc5ccccc54)nc3n2)c1
- inhibition [1]: 87.7%
- inhibition [2]: 61%

Structure (SMILES): CO[C@@H]1C[C@@H]2CC[C@@H](C)[C@@](O)(O2)C(=O)C(=O)N2CCCC[C@H]2C(=O)OC([C@H](C)C[C@@H]2CC[C@@H](O)[C@H](O)C2)C/C=C(\C)[C@@H](O)CC(=O)[C@H](C)C[C@H](C)/C=C/C=C/C=C/1C (some centres undefined)
- Ki [3]: 4.2 nM

Structure (SMILES): COc1cccc2cc(-c3nc([C@H]4CC[C@H](C(=O)NCCOCCOCCNC(=O)CCOCCOCCOCCOCCn5cc(CCCCO[C@@H]6CC[C@@H](C[C@@H](C)[C@@H]7CC(=O)[C@H](C)/C=C(\C)[C@@H](O)[C@@H](OC)C(=O)[C@H](C)C[C@H](C)C\C=C/C=C/C=C(\C)[C@@H](OC)C[C@@H]8CC[C@@H](C)[C@@](O)(O8)C(=O)C(=O)N8CCCC[C@H]8C(=O)O7)C[C@H]6OC)nn5)CC4)n4ncnc(N)c34)[nH]c12
- IC50 [4]: ≤ 1 nM
- IC50 [5]: ≤ 3.16 nM
- IC50 [6]: > 31.6 nM

Structure (SMILES): CO[C@H]1C[C@@H]2CC[C@@H](C)[C@@](O)(O2)C(=O)C(=O)N2CCCC[C@H]2C(=O)O[C@H]([C@H](C)C[C@@H]2CC[C@@H](OCCCN3CCOC(C)(C)C3)[C@H](OC)C2)C[C@@H](O)[C@H](C)/C=C(\C)[C@@H](O)[C@@H](OC)C(NOCC(=O)NCCOCCOCCOCCOCCOCCOCCC(=O)N2CCc3cc(Cn4nc(-c5ccc6oc(N)nc6c5)c5c(N)ncnc54)ccc3C2)[C@H](C)C[C@H](C)C\C=C/C=C/C=C/1C (some centres undefined)
- IC50 [4]: ≤ 1 nM
- IC50 [5]: ≤ 3.16 nM
- IC50 [6]: 1000 nM

Structure (SMILES): CO[C@@H]1C[C@@H]2CC[C@@H](C)[C@@](O)(O2)C(=O)C(=O)N2CCCC[C@H]2C(=O)OC([C@H](C)C[C@@H]2CC[C@@H](O)[C@H](OC)C2)CC(O)CC(=O)[C@H](C)/C=C(\C)[C@@H](O)CC(=O)[C@H](C)C[C@H](C)/C=C/C=C/C=C/1C (some centres undefined)
- Ki [3]: 6.5 nM

Structure (SMILES): CNC(=O)c1cc(-c2ccc3c(N4CCOC[C@@H]4C)nc(N4CCO[C@@H]5CCC[C@@H]54)nc3n2)ccc1F
- inhibition [1]: 77.5%
- inhibition [2]: 60.8%

Structure (SMILES): CO[C@@H]1C[C@@H]2CC[C@@H](C)[C@@](O)(O2)C(=O)C(=O)N2CCCC[C@H]2C(=O)OC([C@H](C)C[C@@H]2CC[C@@H](O)[C@H](OC)C2)C/C=C(\C)[C@@H](O)CC(=O)[C@H](C)C[C@H](C)/C=C/C=C/C=C/1C (some centres undefined)
- Ki [3]: 5.9 nM

Structure (SMILES): CO[C@@H]1C[C@@H]2CC[C@@H](C)[C@@](O)(O2)C(=O)C(=O)N2CCCC[C@H]2C(=O)OC([C@H](C)C[C@H]2CC[C@H](O)CC2)C/C=C(\C)[C@@H](O)CC(=O)[C@H](C)C[C@H](C)/C=C/C=C/C=C/1C (some centres undefined)
- Ki [3]: 7.9 nM

Structure (SMILES): CO[C@H]1C[C@@H]2CC[C@@H](C)[C@@](O)(O2)C(=O)C(=O)N2CCCC[C@H]2C(=O)O[C@H]([C@H](C)C[C@@H]2CC[C@@H](O)[C@H](OC)C2)C[C@@H](O)[C@H](C)/C=C(\C)[C@@H](O)[C@@H](OC)/C(=N\OCc2cn(-c3cnc(N4CCN(c5ncc(C(=O)NCCOCCC(=O)NCCCCn6nc(-c7ccc8oc(N)nc8c7)c7c(N)ncnc76)cn5)CC4)nc3)nn2)[C@H](C)C[C@H](C)C\C=C/C=C/C=C/1C
- IC50 [4]: ≤ 1 nM
- IC50 [5]: ≤ 3.16 nM
- IC50 [6]: > 31.6 nM

Further lines, results first:

- IC50 [7]: < 5 nM
- IC50 [8]: 50 nM
Structure (SMILES): Nc1ncnc2c1c(-c1cc3cc(O)ccc3[nH]1)nn2C1CCOCC1

- IC50 [7]: < 5 nM
- IC50 [8]: 100 nM
Structure (SMILES): CC(=O)N1CCC(n2nc(-c3cc4c(Cl)ccc(O)c4[nH]3)c3c(N)ncnc32)CC1

- IC50 [7]: < 5 nM
- IC50 [8]: 100 nM
Structure (SMILES): Nc1ncnc2c1c(-c1cc3cccc(O)c3[nH]1)nn2C1CCOCC1

- IC50 [9]: < 1000 nM
Structure (SMILES): CN(C)C(=O)c1ccc(Oc2nc(-c3cnc4[nH]ccc4c3)nc(N3CCOCC3)n2)c(F)c1

Reference: ChEMBL document CHEMBL5214923, “Contemporary mTOR inhibitor scaffolds to diseases breakdown: A patent review (2015-2021)” (Eur J Med Chem, 2022)
